pIC50: −log10 of the molar value. Where a SMILES comes first, the peptide text is derived from it. Bridges are numbered along the chain shown (N, C = ends).
Columns and labels:
[1] = target: Ac-AChBP (Aplysia californica, UniProt Q8WSF8); test: biochemical; format: binding
[2] = target: human α3β2 nAChR (Homo sapiens, UniProt P17787+P32297); test: cell-based; format: cell-based
[3] = target: human α3β4 nAChR (Homo sapiens, UniProt P30926+P32297); test: cell-based
Sequence of human α3β4 nAChR (P32297 32-505 limits assumed): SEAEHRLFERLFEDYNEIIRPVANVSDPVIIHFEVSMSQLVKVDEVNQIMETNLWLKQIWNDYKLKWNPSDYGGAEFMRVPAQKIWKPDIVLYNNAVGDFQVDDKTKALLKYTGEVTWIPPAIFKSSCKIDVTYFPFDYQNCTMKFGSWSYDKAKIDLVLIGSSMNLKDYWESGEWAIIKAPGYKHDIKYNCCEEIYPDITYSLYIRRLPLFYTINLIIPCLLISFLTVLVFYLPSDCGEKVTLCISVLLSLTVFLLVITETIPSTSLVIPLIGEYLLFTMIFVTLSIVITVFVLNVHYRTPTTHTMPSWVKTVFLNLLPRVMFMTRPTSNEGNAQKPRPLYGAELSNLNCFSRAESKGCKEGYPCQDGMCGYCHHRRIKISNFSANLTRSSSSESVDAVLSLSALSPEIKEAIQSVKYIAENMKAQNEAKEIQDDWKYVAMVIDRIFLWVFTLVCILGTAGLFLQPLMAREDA
Sequence of human α3β4 nAChR (P30926 22-498 limits assumed): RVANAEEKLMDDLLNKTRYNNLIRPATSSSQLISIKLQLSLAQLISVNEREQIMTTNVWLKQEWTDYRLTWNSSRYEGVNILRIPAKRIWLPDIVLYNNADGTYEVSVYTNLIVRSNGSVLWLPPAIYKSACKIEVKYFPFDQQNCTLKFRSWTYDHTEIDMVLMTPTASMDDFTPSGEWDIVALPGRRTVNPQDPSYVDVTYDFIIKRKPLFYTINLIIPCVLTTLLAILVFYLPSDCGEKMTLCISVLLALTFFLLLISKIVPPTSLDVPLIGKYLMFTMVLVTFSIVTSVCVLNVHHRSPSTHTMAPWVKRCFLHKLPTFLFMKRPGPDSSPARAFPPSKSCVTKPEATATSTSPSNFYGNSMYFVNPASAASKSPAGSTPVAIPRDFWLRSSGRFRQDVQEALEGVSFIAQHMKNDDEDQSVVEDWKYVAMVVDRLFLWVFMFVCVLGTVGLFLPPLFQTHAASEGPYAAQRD

Sequence of human α3β2 nAChR (P32297 32-505 limits assumed): as the sequence (P32297 32-505 limits assumed) above
Sequence of human α3β2 nAChR (P17787 26-502 limits assumed): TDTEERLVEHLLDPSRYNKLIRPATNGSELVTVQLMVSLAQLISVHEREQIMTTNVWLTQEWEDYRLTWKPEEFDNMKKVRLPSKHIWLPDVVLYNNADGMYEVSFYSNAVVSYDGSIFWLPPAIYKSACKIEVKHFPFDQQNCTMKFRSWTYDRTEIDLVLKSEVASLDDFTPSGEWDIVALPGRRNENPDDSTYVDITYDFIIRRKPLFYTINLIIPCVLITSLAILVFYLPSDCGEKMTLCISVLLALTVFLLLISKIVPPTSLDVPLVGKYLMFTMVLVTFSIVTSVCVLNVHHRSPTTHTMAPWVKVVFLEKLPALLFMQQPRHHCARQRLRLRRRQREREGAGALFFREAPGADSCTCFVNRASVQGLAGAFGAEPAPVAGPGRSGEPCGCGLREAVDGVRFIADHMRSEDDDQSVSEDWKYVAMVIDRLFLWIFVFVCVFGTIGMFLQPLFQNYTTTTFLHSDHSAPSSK
Sequence of Ac-AChBP (Q8WSF8 20-236 limits assumed): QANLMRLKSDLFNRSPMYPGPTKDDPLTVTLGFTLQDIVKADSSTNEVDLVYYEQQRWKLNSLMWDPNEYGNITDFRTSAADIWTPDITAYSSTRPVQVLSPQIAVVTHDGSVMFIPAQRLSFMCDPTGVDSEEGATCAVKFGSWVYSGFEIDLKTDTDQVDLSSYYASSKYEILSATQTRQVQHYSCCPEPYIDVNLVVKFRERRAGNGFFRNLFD

Row | SMILES | Increase in the IC50 value for Ac-AChBP versus wild-type GIC [1] | Decrease in the inhibition of α3β2 nAChR versus wild-type GIC [2] | pIC50 [2] | pIC50 [3]
1 | CC[C@H](C)[C@@H]1NC(=O)[C@H](Cc2c[nH]cn2)NC(=O)[C@H](CCC(N)=O)NC(=O)[C@H](CC(N)=O)NC(=O)[C@H](CC(N)=O)NC(=O)CNC(=O)[C@H](C)NC(=O)[C@@H]2CSSC[C@H](NC(=O)CN)C(=O)N[C@@H](CSSC[C@@H](C(N)=O)NC1=O)C(=O)N[C@@H](CO)C(=O)N[C@@H](C)C(=O)N1CCC[C@H]1C(=O)N[C@@H](C)C(=O)N2 [GIC(H5A)] (H-GCCSAPACAGNNQHIC-NH2; disulfide 2-8, 3-16) | ~100 fold | more than 10,000 fold | < 5.00 | < 5.00
2 | CC[C@H](C)[C@@H]1NC(=O)[C@H](Cc2c[nH]cn2)NC(=O)[C@H](CCC(N)=O)NC(=O)[C@H](CC(N)=O)NC(=O)[C@H](C)NC(=O)CNC(=O)[C@H](C)NC(=O)[C@@H]2CSSC[C@H](NC(=O)CN)C(=O)N[C@@H](CSSC[C@@H](C(N)=O)NC1=O)C(=O)N[C@@H](CO)C(=O)N[C@@H](Cc1c[nH]cn1)C(=O)N1CCC[C@H]1C(=O)N[C@@H](C)C(=O)N2 [GIC(N11A)] (H-GCCSHPACAGANQHIC-NH2; disulfide 2-8, 3-16) | – | – | 5.80 | < 5.00
3 | CC[C@H](C)[C@@H]1NC(=O)[C@H](Cc2c[nH]cn2)NC(=O)[C@H](CCC(N)=O)NC(=O)[C@H](CC(N)=O)NC(=O)[C@H](CC(N)=O)NC(=O)CNC(=O)[C@H](C)NC(=O)[C@@H]2CSSC[C@H](NC(=O)CN)C(=O)N[C@@H](CSSC[C@@H](C(N)=O)NC1=O)C(=O)N[C@@H](CO)C(=O)N[C@@H](Cc1c[nH]cn1)C(=O)N1CCC[C@H]1C(=O)NCC(=O)N2 [GIC(A7G)] (H-GCCSHPGCAGNNQHIC-NH2; disulfide 2-8, 3-16) | – | – | 5.38 | < 5.00
4 | CC[C@H](C)[C@@H]1NC(=O)[C@H](Cc2c[nH]cn2)NC(=O)[C@H](CCC(N)=O)NC(=O)[C@H](CC(N)=O)NC(=O)[C@H](CC(N)=O)NC(=O)CNC(=O)[C@H](C)NC(=O)[C@@H]2CSSC[C@H](NC(=O)CN)C(=O)N[C@@H](CSSC[C@@H](C(N)=O)NC1=O)C(=O)N[C@@H](CO)C(=O)N[C@@H](Cc1c[nH]cn1)C(=O)N1CCC[C@H]1C(=O)N[C@@H](CC(C)C)C(=O)N2 [GIC(A7L)] (H-GCCSHPLCAGNNQHIC-NH2; disulfide 2-8, 3-16) | – | more than 10,000 fold | < 5.00 | < 5.00
5 | CC[C@H](C)[C@@H]1NC(=O)[C@H](Cc2c[nH]cn2)NC(=O)[C@H](C)NC(=O)[C@H](CC(N)=O)NC(=O)[C@H](CC(N)=O)NC(=O)CNC(=O)[C@H](C)NC(=O)[C@@H]2CSSC[C@H](NC(=O)CN)C(=O)N[C@@H](CSSC[C@@H](C(N)=O)NC1=O)C(=O)N[C@@H](CO)C(=O)N[C@@H](Cc1c[nH]cn1)C(=O)N1CCC[C@H]1C(=O)N[C@@H](C)C(=O)N2 [GIC(Q13A)] | – | – | 8.08 | 6.18
6 | CC[C@H](C)[C@@H]1NC(=O)[C@H](Cc2c[nH]cn2)NC(=O)[C@H](CCC(N)=O)NC(=O)[C@H](C)NC(=O)[C@H](CC(N)=O)NC(=O)CNC(=O)[C@H](C)NC(=O)[C@@H]2CSSC[C@H](NC(=O)CN)C(=O)N[C@@H](CSSC[C@@H](C(N)=O)NC1=O)C(=O)N[C@@H](CO)C(=O)N[C@@H](Cc1c[nH]cn1)C(=O)N1CCC[C@H]1C(=O)N[C@@H](C)C(=O)N2 [GIC(N12A)] (H-GCCSHPACAGNAQHIC-NH2; disulfide 2-8, 3-16) | – | – | 5.70 | < 5.00
